The term logP denotes a log measure of how a compound divides between an organic and an aqueous phase. Read a high logP as a more lipophilic compound.

Here are results for 9 molecules from ChEMBL document CHEMBL1137369, “New orally active derivatives of artemisinin with high efficacy against multidrug-resistant malaria in mice” (J Med Chem, 2006).

The first data set has as its system Plasmodium yoelii nigeriensis. In words: Antimalarial activity against multidrug-resistant Plasmodium yoelii nigeriensis infected Swiss mice (Mus musculus) at 48 mg/kg peroral dose over 4 days. It counts as functional. The settings on record: route oral.
The molecule `C[C@H]1[C@@H](OCCOc2ccc(-c3ccccc3)cc2)O[C@@H]2C[C@@]3(C)CC[C@H]4[C@H](C)CC[C@@H]1[C@@]24OO3` came in with an Activity of 100%.
`C[C@H]1[C@H](OCCOc2ccc(-c3ccccc3)cc2)O[C@@H]2C[C@@]3(C)CC[C@H]4[C@H](C)CC[C@@H]1[C@@]24OO3` yielded an Activity of 100%.
Still for that read-out and setting: as for `C[C@@H]1CC[C@H]2[C@@H](C)C(OCC34CC5CC(CC(C5)C3)C4)O[C@@H]3O[C@@]4(C)CC[C@@H]1[C@]32OO4` (stereo partly specified), the figure is 100%; as for `C[C@H]1[C@@H](OCC2c3ccccc3-c3ccccc32)O[C@@H]2C[C@@]3(C)CC[C@H]4[C@H](C)CC[C@@H]1[C@@]24OO3`, 100%.
As for `C[C@H]1[C@@H](OCCC23CC4CC(CC(C4)C2)C3)O[C@@H]2O[C@@]3(C)CC[C@H]4[C@H](C)CC[C@@H]1[C@@]24OO3`, the Activity is recorded as 100%.
Consider `C[C@H]1[C@H](OCC2c3ccccc3-c3ccccc32)O[C@@H]2C[C@@]3(C)CC[C@H]4[C@H](C)CC[C@@H]1[C@@]24OO3`, for which the Activity came out at 100%.
`C[C@H]1[C@H](OCc2ccc(-c3ccccc3)cc2)O[C@@H]2O[C@@]3(C)CC[C@H]4[C@H](C)CC[C@@H]1[C@@]24OO3` came in with an Activity of 100%.
`C[C@H]1[C@@H](OCCOc2ccccc2-c2ccccc2)O[C@@H]2C[C@@]3(C)CC[C@H]4[C@H](C)CC[C@@H]1[C@@]24OO3` came in with an Activity of 100%.
Regarding `C[C@H]1[C@@H](OCc2ccccc2-c2ccccc2)O[C@@H]2O[C@@]3(C)CC[C@H]4[C@H](C)CC[C@@H]1[C@@]24OO3`, the Activity was found to be 100%.

A further data set relates to Plasmodium yoelii nigeriensis. In words: Antimalarial activity as cures against multidrug-resistant Plasmodium yoelii nigeriensis infected Swiss mice (Mus musculus) at 48 mg/kg peroral dose over 4 days. The data set is classed as functional. To be noted: route oral.
As to `C[C@H]1[C@@H](OCCOc2ccc(-c3ccccc3)cc2)O[C@@H]2C[C@@]3(C)CC[C@H]4[C@H](C)CC[C@@H]1[C@@]24OO3`, the Activity is reported as 100%.
In turn, `C[C@H]1[C@H](OCCOc2ccc(-c3ccccc3)cc2)O[C@@H]2C[C@@]3(C)CC[C@H]4[C@H](C)CC[C@@H]1[C@@]24OO3` showed an Activity of 100%.
In turn, `C[C@@H]1CC[C@H]2[C@@H](C)C(OCC34CC5CC(CC(C5)C3)C4)O[C@@H]3O[C@@]4(C)CC[C@@H]1[C@]32OO4` (stereo partly specified) displayed an Activity of 100%.
The molecule `C[C@H]1[C@@H](OCC2c3ccccc3-c3ccccc32)O[C@@H]2C[C@@]3(C)CC[C@H]4[C@H](C)CC[C@@H]1[C@@]24OO3` gave an Activity of 100%.
Still for that read-out and setting: as for `C[C@H]1[C@@H](OCCC23CC4CC(CC(C4)C2)C3)O[C@@H]2O[C@@]3(C)CC[C@H]4[C@H](C)CC[C@@H]1[C@@]24OO3`, the figure is 100%.
For the molecule `C[C@H]1[C@H](OCC2c3ccccc3-c3ccccc32)O[C@@H]2C[C@@]3(C)CC[C@H]4[C@H](C)CC[C@@H]1[C@@]24OO3`, the Activity is listed as 100%.
Still for that read-out and setting: with `C[C@H]1[C@H](OCc2ccc(-c3ccccc3)cc2)O[C@@H]2O[C@@]3(C)CC[C@H]4[C@H](C)CC[C@@H]1[C@@]24OO3` the figure was 100%; with `C[C@H]1[C@@H](OCCOc2ccccc2-c2ccccc2)O[C@@H]2C[C@@]3(C)CC[C@H]4[C@H](C)CC[C@@H]1[C@@]24OO3`, 100%.
Still for that read-out and setting: with `C[C@H]1[C@@H](OCc2ccccc2-c2ccccc2)O[C@@H]2O[C@@]3(C)CC[C@H]4[C@H](C)CC[C@@H]1[C@@]24OO3` the figure was 100%.

The subject of the next data set is Plasmodium yoelii nigeriensis. In words: Antimalarial activity against multidrug-resistant Plasmodium yoelii nigeriensis infected Swiss mice (Mus musculus) at 12 mg/kg peroral dose over 4 days. The data set is classed as functional. To be noted: route oral.
Molecule `C[C@H]1[C@@H](OCCOc2ccc(-c3ccccc3)cc2)O[C@@H]2C[C@@]3(C)CC[C@H]4[C@H](C)CC[C@@H]1[C@@]24OO3` displayed an Activity of 100%.
`C[C@H]1[C@H](OCCOc2ccc(-c3ccccc3)cc2)O[C@@H]2C[C@@]3(C)CC[C@H]4[C@H](C)CC[C@@H]1[C@@]24OO3` yielded an Activity of 100%.
The same measure, in the same setting: as for `C[C@@H]1CC[C@H]2[C@@H](C)C(OCC34CC5CC(CC(C5)C3)C4)O[C@@H]3O[C@@]4(C)CC[C@@H]1[C@]32OO4` (stereo partly specified), the figure is 100%.
As to `C[C@H]1[C@@H](OCC2c3ccccc3-c3ccccc32)O[C@@H]2C[C@@]3(C)CC[C@H]4[C@H](C)CC[C@@H]1[C@@]24OO3`, the Activity is 100%.
Same read-out and setting: with `C[C@H]1[C@H](OCC2c3ccccc3-c3ccccc32)O[C@@H]2C[C@@]3(C)CC[C@H]4[C@H](C)CC[C@@H]1[C@@]24OO3` the figure was 100%.
Consider `C[C@H]1[C@H](OCc2ccc(-c3ccccc3)cc2)O[C@@H]2O[C@@]3(C)CC[C@H]4[C@H](C)CC[C@@H]1[C@@]24OO3`, for which the Activity was determined as 100%.
Still for that read-out and setting: with `C[C@H]1[C@@H](OCc2ccccc2-c2ccccc2)O[C@@H]2O[C@@]3(C)CC[C@H]4[C@H](C)CC[C@@H]1[C@@]24OO3` the figure was 100%.

Another data set relates to Plasmodium yoelii nigeriensis. In words: Antimalarial activity against multidrug-resistant Plasmodium yoelii nigeriensis infected Swiss mice (Mus musculus) at 6 mg/kg peroral dose over 4 days. The data set is classed as functional. To be noted: route oral.
`C[C@H]1[C@H](OCCOc2ccc(-c3ccccc3)cc2)O[C@@H]2C[C@@]3(C)CC[C@H]4[C@H](C)CC[C@@H]1[C@@]24OO3` showed an Activity of 44.33%.
Still for that read-out and setting: as for `C[C@H]1[C@@H](OCC2c3ccccc3-c3ccccc32)O[C@@H]2C[C@@]3(C)CC[C@H]4[C@H](C)CC[C@@H]1[C@@]24OO3`, the figure is 92.95%; as for `C[C@H]1[C@H](OCc2ccc(-c3ccccc3)cc2)O[C@@H]2O[C@@]3(C)CC[C@H]4[C@H](C)CC[C@@H]1[C@@]24OO3`, 86.33%.

System in a further data set: not listed separately
In words: Lipophilicity, Log P of the compound. It counts as physicochemical. The settings on record: octanol/water.
The molecule `C[C@H]1[C@@H](OCCOc2ccc(-c3ccccc3)cc2)O[C@@H]2C[C@@]3(C)CC[C@H]4[C@H](C)CC[C@@H]1[C@@]24OO3` returned a logP of 6.85.
Regarding `C[C@H]1[C@H](OCCOc2ccc(-c3ccccc3)cc2)O[C@@H]2C[C@@]3(C)CC[C@H]4[C@H](C)CC[C@@H]1[C@@]24OO3`, the logP is 6.85.
For `C[C@@H]1CC[C@H]2[C@@H](C)C(OCC34CC5CC(CC(C5)C3)C4)O[C@@H]3O[C@@]4(C)CC[C@@H]1[C@]32OO4` (stereo partly specified), the lipophilicity (logP) came to 6.02.
On the same count and under the same terms, as for `C[C@H]1[C@@H](OCC2c3ccccc3-c3ccccc32)O[C@@H]2C[C@@]3(C)CC[C@H]4[C@H](C)CC[C@@H]1[C@@]24OO3`, the figure is 6.75; as for `C[C@H]1[C@@H](OCCC23CC4CC(CC(C4)C2)C3)O[C@@H]2O[C@@]3(C)CC[C@H]4[C@H](C)CC[C@@H]1[C@@]24OO3`, 6.29; as for `C[C@H]1[C@H](OCC2c3ccccc3-c3ccccc32)O[C@@H]2C[C@@]3(C)CC[C@H]4[C@H](C)CC[C@@H]1[C@@]24OO3`, 6.75.
`C[C@H]1[C@H](OCc2ccc(-c3ccccc3)cc2)O[C@@H]2O[C@@]3(C)CC[C@H]4[C@H](C)CC[C@@H]1[C@@]24OO3` returned a logP of 6.91.
Consider `C[C@H]1[C@@H](OCCOc2ccccc2-c2ccccc2)O[C@@H]2C[C@@]3(C)CC[C@H]4[C@H](C)CC[C@@H]1[C@@]24OO3`, for which the logP is 6.85.
Regarding `C[C@H]1[C@@H](OCc2ccccc2-c2ccccc2)O[C@@H]2O[C@@]3(C)CC[C@H]4[C@H](C)CC[C@@H]1[C@@]24OO3`, the lipophilicity (logP) was found to be 6.91.

System in the next data set: not listed separately
In words: Protection of Swiss mice (Mus musculus) infected with Plasmodium yoelii nigeriensis at 48 mg/kg, perorally for 4 days. It counts as functional. The settings on record: route oral.
In the case of `C[C@H]1[C@@H](OCCOc2ccc(-c3ccccc3)cc2)O[C@@H]2C[C@@]3(C)CC[C@H]4[C@H](C)CC[C@@H]1[C@@]24OO3`, the Activity was determined as 100%.
`C[C@@H]1CC[C@H]2[C@@H](C)C(OCC34CC5CC(CC(C5)C3)C4)O[C@@H]3O[C@@]4(C)CC[C@@H]1[C@]32OO4` (stereo partly specified) showed an Activity of 100%.
On the same count and under the same terms, with `C[C@H]1[C@@H](OCCC23CC4CC(CC(C4)C2)C3)O[C@@H]2O[C@@]3(C)CC[C@H]4[C@H](C)CC[C@@H]1[C@@]24OO3` the figure was 60%; with `C[C@H]1[C@@H](OCc2ccccc2-c2ccccc2)O[C@@H]2O[C@@]3(C)CC[C@H]4[C@H](C)CC[C@@H]1[C@@]24OO3`, 100%.
